Legend:
[1] = target: KRAS (G13D)::SOS1 (Homo sapiens (Human), UniProt P01116, C118S/G13D); experiment: KRAS::SOS1 AlphaScreen binding assay, KRAS G13D
From the text: (§1) This assay can be used to examine the potency with which compounds according to the invention binding to (mutated) KRAS inhibit the protein-protein interaction between SOS1 and (mutated) KRAS e.g., KRAS WT, KRAS G12C, KRAS G12D, KRAS G12V, KRAS G13D. […] Low IC50 values in this assay setting are indicative of strong inhibition of protein-protein interaction between SOS1 and KRAS:
(§2) These assays measure the inhibitory effect of compounds on KRAS mutant protein-protein interactions using the Alpha Screen technology by Perkin Elmer.
(§3) The following (mutant) enzyme forms of KRAS and interacting proteins are used in these assays at the given concentrations: • KRAS (G12D) 1-169, N-terminal 6His-tag, C-terminal avi-tag (Xtal BioStructures, Inc.); final assay concentration 10 nM and SOS1 564-1049, N-terminal 229 GST-tag, TEV cleavage site (Viva Biotech Ltd); final assay concentration 5 nM; • KRAS (G12C) 1-169, N-terminal 6His-tag for purification, cleaved off, C-terminal avi-tag, biotinylated, mutations: C51S, C80L, C118S (in house); final assay concentration 7.5 nM and SOS1 564-1049, N-terminal 229 GST-tag, TEV cleavage site (Viva Biotech Ltd); final assay concentration 5 nM; • KRAS (G12V) 1-169, N-terminal 6His-tag for purification, cleaved off, C-terminal avi-tag, biotinylated, TEV cleavage site, mutation: C118S, GDP loaded (in house); final assay concentration 10 nM and SOS1 564-1049, N-terminal 229 GST-tag, TEV cleavage site (Viva Biotech Ltd); final assay concentration 10 nM; • KRAS (G13D) 1-169, N-terminal 6His-tag for purification, cleaved off, C-terminal avi-tag, biotinylated, TEV cleavage site, mutation: C118S, GDP loaded (in house); final assay concentration 10 nM and SOS1 564-1049, N-terminal 229 GST-tag, TEV cleavage site (Viva Biotech Ltd); final assay concentration 10 nM; • KRAS (WT) 1-169, N-terminal 6His-tag for purification, cleaved off, C-terminal avi-tag, biotinylated, TEV cleavage site, mutation: C118S, GDP loaded (in house); final assay concentration 10 nM and SOS1 564-1049, N-terminal 229 GST-tag, TEV cleavage site (Viva Biotech Ltd); final assay concentration 10 nM.
(§4) Test compounds dissolved in DMSO are dispensed onto assay plates (Proxiplate 384 PLUS, white, PerkinElmer; 6008289) using an Access Labcyte Workstation with the Labcyte Echo 55×. For the chosen highest assay concentration of 100 μM, 150 nL of compound solution are transferred from a 10 mM DMSO compound stock solution. A series of eleven fivefold dilutions per compound are transferred to the assay plate, compound dilutions are tested in duplicates. DMSO are added as backfill to a total volume of 150 nL.
(§5) The assays run on a fully automated robotic system in a darkened room below 100 Lux. To 150 nl of compound dilution 10 μl of a mix including KRAS mutant protein, SOS1 (final assay concentrations see above) and GDP nucleotide (Sigma G7127; final assay concentration 10 μM) in assay buffer (1×PBS, 0.1% BSA, 0.05% Tween 20) are added into columns 1-24.
(§6) After 30 minutes incubation time 5 μl of Alpha Screen bead mix in assay buffer are added into columns 1-23. Bead mix consists of AlphaLISA Glutathione Acceptor Beads (PerkinElmer, Cat No AL109) and AlphaScreen Streptavidin Donor Beads (PerkinElmer Cat No 6760002) in assay buffer at a final assay concentration of 10 μg/ml each.
(§7) Plates are kept at room temperature in a darkened incubator. After an additional 60 minutes incubation time the signal is measured in a PerkinElmer Envision HTS Multilabel Reader using the AlphaScreen specs from PerkinElmer.
(§8) Each plate contains up to 16 wells of a negative control depending on the dilution procedure (platewise or serial) (DMSO instead of test compound; with KRAS mutant::SOS1 GDP mix and bead mix; column 23) and 16 wells of a positive control (DMSO instead of test compound; with KRAS mutant::SOS1 GDP mix w/o bead mix; column 24).
(§9) As internal control known inhibitors of KRAS mutant::SOS1 interaction can be measured on each compound plate. […]

[2] = target: KRAS (G12V)::SOS1 (Homo sapiens (Human), UniProt P01116, C118S/G12V); experiment: KRAS::SOS1 AlphaScreen binding assay, KRAS G12V
From the text: as §1, §2, §3, §4, §5, §6, §7, §8, §9

[3] = tested on: A375 cells; experiment: A375 CTG proliferation assay (120 h) (melanoma, wt, B-Raf mutant, negative control); assay type: cell-based; conditions: Homo sapiens, A-375, CTG 120 h
Experimental: A375 CTG Proliferation Assay (120 h) (Melanoma, Wt, B-Raf Mutant, Negative Control)
A375 cells (ATCC CRL-1619) are dispensed into 384-well plates, flat and clear bottom (Greiner, PNr. 781091) at a density of 300 cells per well in 60 μL DMEM (Sigma 06429)+10% Fetal Calf Serum (HyClone, PNr.: SH30084.03) and incubated at 37° C. in a CO2 incubator overnight. The next day, compounds (10 mM stock in DMSO) are added at logarithmic dose series using the HP Digital Dispenser D300 (Tecan), including DMSO controls. Plates are incubated for 120 h, and cell viability is measured using CellTiter-Glo luminescent cell viability reagent (Promega product code G7570). Viability (stated as percent of control) is defined as relative luminescence units RLU of each well divided by the RLU of cells in DMSO controls. IC50 values are determined from viability measurements by non-linear regression using a four-parameter model.

Chain of KRAS (G12V)::SOS1 (P01116 other isoform, or with tags, fused parts or gaps G12V/C118S): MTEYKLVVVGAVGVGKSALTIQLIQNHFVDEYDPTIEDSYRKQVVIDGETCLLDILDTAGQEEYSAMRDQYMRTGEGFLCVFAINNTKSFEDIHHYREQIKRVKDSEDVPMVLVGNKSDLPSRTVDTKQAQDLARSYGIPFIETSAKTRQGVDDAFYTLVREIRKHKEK
Chain of KRAS (G13D)::SOS1 (P01116 other isoform, or with tags, fused parts or gaps G13D/C118S): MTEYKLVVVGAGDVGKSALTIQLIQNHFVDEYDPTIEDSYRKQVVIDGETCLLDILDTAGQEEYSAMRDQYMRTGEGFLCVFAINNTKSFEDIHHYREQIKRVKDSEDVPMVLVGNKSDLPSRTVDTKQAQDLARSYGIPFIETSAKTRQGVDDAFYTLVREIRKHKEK

IC50 [1] | IC50 [2] | IC50 [3] | SMILES
12 nM | 1 nM | > 3000 nM | C[C@H](Oc1cc(-n2ccc(C(N)=O)n2)nc(-c2noc3c2CCC[C@@]32CCCc3sc(N)c(C#N)c32)n1)[C@@H]1CCCN1C [II-21]
 |  | > 3000 nM | C[C@H](Oc1cc([C@@H]2CCOC2)nc(-c2onc3c2CCC[C@@]32CCCc3sc(N)c(C#N)c32)n1)[C@@H]1CCCN1C [I-22]
 |  | > 3000 nM | C[C@H](Oc1cc(-c2ccn(C)n2)nc(-c2noc3c2CCC[C@@]32CCCc3sc(N)c(C#N)c32)n1)[C@@H]1C[C@@H](F)CN1C [II-27]
 | 3 nM |  | Cc1ccc(-c2cc(O[C@@H](C)[C@@H]3CCCN3C)nc(-c3onc4c3CCC[C@@]43CCCc4sc(N)c(C#N)c43)n2)cn1 [I-28]
71 nM | 39 nM |  | C[C@H](Oc1cc(N2CC[C@H](N(C)C)C2)nc(-c2noc3c2CCC[C@@]32CCCc3sc(N)c(C#N)c32)n1)[C@@H]1C[C@@H](F)CN1C [II-15]
20 nM | 8 nM |  | C[C@H](Oc1cc(N2CCNC3(COC3)C2)nc(-c2onc3c2CCC[C@@]32CCCc3sc(N)c(C#N)c32)n1)[C@@H]1CCCN1C [I-4]
 | 2 nM | > 3000 nM | CNC(=O)c1ccn(-c2cc(O[C@@H](C)[C@@H]3CCCN3C)nc(-c3noc4c3CCC[C@@]43CCCc4sc(N)c(C#N)c43)n2)n1 [II-20]
9 nM |  | 1120 nM | C[C@H](Oc1cc(-n2ccc(C(=O)N3CCCC3)n2)nc(-c2noc3c2CCC[C@@]32CCCc3sc(N)c(C#N)c32)n1)[C@@H]1CCCN1C [II-19]
8 nM |  |  | C[C@H](Oc1cc(N2CCNC3(COC3)C2)nc(-c2noc3c2CCC[C@@]32CCCc3sc(N)c(C#N)c32)n1)[C@@H]1CCCN1C [II-31]
 | 2 nM |  | C[C@H](Oc1cc(-c2ccn([C@H]3CCCOC3)n2)nc(-c2noc3c2CCC[C@@]32CCCc3sc(N)c(C#N)c32)n1)[C@@H]1CCCN1C [II-42]
8 nM | 3 nM |  | C[C@H](Oc1cc(N2CCN(C)C3(COC3)C2)nc(-c2noc3c2CCC[C@@]32CCCc3sc(N)c(C#N)c32)n1)[C@@H]1CCCN1C [II-13]
146 nM |  |  | C[C@H](Oc1cc(N2CCN(C)C3(CC3)C2)nc(-c2onc3c2CCC[C@@]32CCCc3sc(N)c(C#N)c32)n1)[C@@H]1C[C@@H](F)CN1C [I-39]
8 nM | 2 nM |  | C[C@H](Oc1cc(-n2ccc(C(=O)NC3(C)COC3)n2)nc(-c2noc3c2CCC[C@@]32CCCc3sc(N)c(C#N)c32)n1)[C@@H]1CCCN1C [II-26]
 | 12 nM |  | C[C@H](Oc1cc(-c2cnn(C)n2)nc(-c2noc3c2CCC[C@@]32CCCc3sc(N)c(C#N)c32)n1)[C@@H]1C[C@@H](F)CN1C [II-28]
 | 8 nM |  | C[C@H](Oc1cc(N2C[C@H](C)N(C)[C@@H](C)C2)nc(-c2onc3c2CCC[C@@]32CCCc3sc(N)c(C#N)c32)n1)[C@@H]1CCCN1C [I-43]
 | 8 nM |  | C[C@H](Oc1cc(N2CCNC3(CC3)C2)nc(-c2onc3c2CCC[C@@]32CCCc3sc(N)c(C#N)c32)n1)[C@@H]1C[C@@H](F)CN1C [I-45]
11 nM | 7 nM |  | C[C@H](Oc1cc(-n2ccc(C(=O)NC3COC3)n2)nc(-c2noc3c2CCC[C@@]32CCCc3sc(N)c(C#N)c32)n1)[C@@H]1CCCN1C [II-25]

SMILES | IC50 [1] | IC50 [2] | IC50 [3]
C[C@H](Oc1cc(N2CC3CCC(C2)N3)nc(-c2noc3c2CCC[C@@]32CCCc3sc(N)c(C#N)c32)n1)[C@@H]1CCCN1C [II-34] | 38 nM | 17 nM | 

Source: patent US20240174690A1, “ANNULATED 2-AMINO-3-CYANO THIOPHENES AND DERIVATIVES FOR THE TREATMENT OF CANCER” (BOEHRINGER INGELHEIM INTERNATIONAL GMBH, priority 2021, published 2024)
